Where “and” joins values, the source holds several entries; their conditions need not be identical. Equal values may be shown once. Toxic doses and inconclusive results are not listed.
Test system: P388 leukemia ip, CD2F1 mice, survival T/C
Assay: NCI In Vivo Anticancer Drug Screen. Data for tumor model P388 Leukemia (intraperitoneal) in CD2F1 (CDF1) mice
Settings: endpoint: median survival time, higher = longer survival
How it was run: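 Mice carrying the transplanted tumor received test compound or vehicle. Survival was recorded in each group, and the value is the treated-group measurement divided by that of the vehicle-treated control group.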

[1] = dose: 50.0 mg/kg/injection, schedule: Q01DX005 (ip), vehicle: saline with Tween-80
[2] = dose: 100.0 mg/kg/injection, schedule: Q01DX005 (ip), vehicle: saline with Tween-80
[3] = dose: 25.0 mg/kg/injection, schedule: Q01DX005 (ip), vehicle: saline with Tween-80
[4] = dose: 200.0 mg/kg/injection, schedule: Q01DX005 (ip), vehicle: saline with Tween-80
[5] = dose: 12.5 mg/kg/injection, schedule: Q01DX009 (ip), vehicle: distilled water + Tween-80
[6] = dose: 25.0 mg/kg/injection, schedule: Q01DX009 (ip), vehicle: distilled water + Tween-80
[7] = dose: 7.5 mg/kg/injection, schedule: Q01DX005 (ip), vehicle: Klucel (hydroxypropylcellulose) (HPC)
[8] = dose: 15.0 mg/kg/injection, schedule: Q01DX005 (ip), vehicle: Klucel (hydroxypropylcellulose) (HPC)
[9] = dose: 60.0 mg/kg/injection, schedule: Q01DX005 (ip), vehicle: saline with Tween-80
[10] = dose: 120.0 mg/kg/injection, schedule: Q01DX005 (ip), vehicle: saline with Tween-80
[11] = dose: 240.0 mg/kg/injection, schedule: Q01DX005 (ip), vehicle: saline with Tween-80
[12] = dose: 100.0 mg/kg/injection, schedule: Q01DX001 (ip), vehicle: saline with Tween-80
[13] = dose: 50.0 mg/kg/injection, schedule: Q01DX005 (ip), vehicle: Klucel (hydroxypropylcellulose) (HPC)
[14] = dose: 100.0 mg/kg/injection, schedule: Q01DX005 (ip), vehicle: Klucel (hydroxypropylcellulose) (HPC)
[15] = dose: 200.0 mg/kg/injection, schedule: Q01DX005 (ip), vehicle: Klucel (hydroxypropylcellulose) (HPC)

`COc1cc(O)c(Cc2ccccc2O)c(O)c1C(=O)CCc1ccccc1` was tested, and the T/C (dose: 1.25 mg/kg/injection, schedule: Q01DX009 (ip), vehicle: saline with Tween-80) was 100 % of control, the T/C (dose: 1.25 mg/kg/injection, schedule: Q01DX009 (ip), vehicle: saline) was 104 % of control and the T/C (dose: 2.5 mg/kg/injection, schedule: Q01DX009 (ip), vehicle: saline with Tween-80) was 105 % of control. The T/C (dose: 2.5 mg/kg/injection, schedule: Q01DX009 (ip), vehicle: saline) was 104 % of control, the T/C (dose: 5.0 mg/kg/injection, schedule: Q01DX009 (ip), vehicle: saline with Tween-80) was 111 % of control and the T/C (dose: 5.0 mg/kg/injection, schedule: Q01DX009 (ip), vehicle: saline) was 104 % of control. For the same compound, the T/C (dose: 10.0 mg/kg/injection, schedule: Q01DX009 (ip), vehicle: saline) was 104 % of control and the T/C (dose: 20.0 mg/kg/injection, schedule: Q01DX009 (ip), vehicle: saline) was 101 % of control.
`CC(=O)CC1C=CCC(CC(O)c2ccccc2)N1C` (stereo not drawn) was tested, and the T/C (dose: 12.5 mg/kg/injection, schedule: Q01DX005 (ip), vehicle: saline) was 100 % of control, the T/C (dose: 25.0 mg/kg/injection, schedule: Q01DX005 (ip), vehicle: saline) was 105 % of control and the T/C (dose: 50.0 mg/kg/injection, schedule: Q01DX005 (ip), vehicle: saline) was 105 % of control.
`CCn1c(Cl)c(/C=N/NS(=O)(=O)c2ccc(C)cc2)c2cccc(/C=N\NS(=O)(=O)c3ccc(C)cc3)c21` was tested, and the T/C (dose: 50.0 mg/kg/injection, schedule: Q01DX001 (ip), vehicle: Klucel (hydroxypropylcellulose) (HPC)) was 99 % of control and the T/C (dose: 100.0 mg/kg/injection, schedule: Q01DX001 (ip), vehicle: Klucel (hydroxypropylcellulose) (HPC)) was 96 % of control.
`CCN(CC)CCNc1ccc(CO)c2oc3ccc(O)cc3c(=O)c12` was tested, and the T/C [1] was 171 % of control and 189 % of control and the T/C [2] was 214 % of control and 217 % of control.
For `CCN(CC)c1nc(Cl)nc(N(CC)CC)n1`, the T/C [3] was 99 % of control and 97 % of control, the T/C [1] was 103 % of control [middle of 4 runs] and the T/C [2] was 106 % of control and 101 % of control and 107 % of control. The T/C [4] was 113 % of control [middle of 4 runs] and the T/C (dose: 400.0 mg/kg/injection, schedule: Q01DX005 (ip), vehicle: saline with Tween-80) was 100 % of control.
For `COc1ccc(-c2coc3c4c(c(CC=C(C)C)c(OC)c3c2=O)OC(C)(C)C=C4)cc1OC`, the T/C (dose: 12.5 mg/kg/injection, schedule: Q01DX005 (ip), vehicle: saline with Tween-80) was 102 % of control, the T/C [3] was 100 % of control and the T/C [1] was 98 % of control and 91 % of control.
With `CC[As](CC)SC1CCC2(C)C(=CCC3C4CCC(=O)C4(C)CCC32)C1` (stereo not drawn) the T/C [5] was 105 % of control, the T/C [6] was 100 % of control and 117 % of control and the T/C (dose: 50.0 mg/kg/injection, schedule: Q01DX009 (ip), vehicle: distilled water + Tween-80) was 120 % of control. The T/C (dose: 100.0 mg/kg/injection, schedule: Q01DX009 (ip), vehicle: distilled water + Tween-80) was 156 % of control.
With `O=C(c1cc(Cl)c(Cl)c([N+](=O)[O-])c1Cl)C(Cl)Cl` the T/C (dose: 25.0 mg/kg/injection, schedule: Q04DX003 (ip), vehicle: Klucel (hydroxypropylcellulose) (HPC)) was 104 % of control, the T/C (dose: 50.0 mg/kg/injection, schedule: Q04DX003 (ip), vehicle: Klucel (hydroxypropylcellulose) (HPC)) was 99 % of control and the T/C (dose: 100.0 mg/kg/injection, schedule: Q04DX003 (ip), vehicle: Klucel (hydroxypropylcellulose) (HPC)) was 103 % of control.
`N#Cc1ccc(NN=NCCS(=O)CCCl)cc1` (stereo not drawn) was tested, and the T/C (dose: 6.25 mg/kg/injection, schedule: Q01DX009 (ip), vehicle: distilled water + Tween-80) was 100 % of control, the T/C [5] was 111 % of control and the T/C [6] was 112 % of control.
`CCC1=CCCN(Cc2ccccc2)C1C#N` (stereo not drawn) was tested, and the T/C [7] was 106 % of control, the T/C [8] was 111 % of control and the T/C (dose: 30.0 mg/kg/injection, schedule: Q01DX005 (ip), vehicle: Klucel (hydroxypropylcellulose) (HPC)) was 118 % of control.
For `COc1cc2c(cc1OC(C)=O)C=CCCC2=O`, the T/C (dose: 100.0 mg/kg/injection, schedule: Q04DX003 (ip), vehicle: saline with Tween-80) was 105 % of control, the T/C (dose: 200.0 mg/kg/injection, schedule: Q04DX003 (ip), vehicle: saline with Tween-80) was 100 % of control and the T/C (dose: 400.0 mg/kg/injection, schedule: Q04DX003 (ip), vehicle: saline with Tween-80) was 105 % of control.
In the case of `CCCCc1c(OC(=O)N(C)C)c(C#N)c2n(C)c3ccccc3n2c1=O`, the T/C [9] is reported as 101 % of control and 86 % of control, the T/C [10] is reported as 95 % of control and the T/C [11] is reported as 93 % of control and 96 % of control.
`COc1cc(C2c3cc4c(cc3CC3COC(=O)N32)OCO4)cc(OC)c1OC` (stereo not drawn) was tested, and the T/C (dose: 3.75 mg/kg/injection, schedule: Q01DX005 (ip), vehicle: Klucel (hydroxypropylcellulose) (HPC)) was 98 % of control and 92 % of control, the T/C [7] was 88 % of control and 91 % of control and 92 % of control and the T/C [8] was 92 % of control (2×) and 97 % of control.
In the case of `CCOC(=O)Cc1csc(/C=C/c2ccc(OC)c(OC)c2)n1`, the T/C [9] is reported as 96 % of control, the T/C [10] is reported as 96 % of control and the T/C [11] is reported as 90 % of control.
With `CCCCCOC(=O)C1=CCN2CCCC12C` (stereo not drawn) the T/C (dose: 25.0 mg/kg/injection, schedule: Q01DX001 (ip), vehicle: saline with Tween-80) was 97 % of control, the T/C (dose: 50.0 mg/kg/injection, schedule: Q01DX001 (ip), vehicle: saline with Tween-80) was 105 % of control and the T/C [12] was 97 % of control.
In the case of `CC(C)(C)OCC(NC(=O)OC(C)(C)C)C(=O)O` (stereo not drawn), the T/C [1] is reported as 100 % of control, the T/C [2] is reported as 103 % of control and the T/C [4] is reported as 97 % of control.
`CN(C)CCC(OC(=O)c1ccccc1Cl)c1ccccc1` (stereo not drawn) was tested, and the T/C (dose: 25.0 mg/kg/injection, schedule: Q01DX009 (ip), vehicle: saline) was 99 % of control and 100 % of control and 101 % of control, the T/C (dose: 50.0 mg/kg/injection, schedule: Q01DX009 (ip), vehicle: saline) was 101 % of control and 107 % of control and 117 % of control and the T/C (dose: 100.0 mg/kg/injection, schedule: Q01DX009 (ip), vehicle: saline) was 108 % of control and 116 % of control.
`Cc1ccc(S(=O)(=O)N/N=C/C(N)=O)cc1` was tested, and the T/C (dose: 12.5 mg/kg/injection, schedule: Q01DX009 (ip), vehicle: other) was 101 % of control, the T/C (dose: 25.0 mg/kg/injection, schedule: Q01DX009 (ip), vehicle: other) was 101 % of control and the T/C (dose: 50.0 mg/kg/injection, schedule: Q01DX009 (ip), vehicle: other) was 96 % of control. The T/C (dose: 100.0 mg/kg/injection, schedule: Q01DX009 (ip), vehicle: other) was 104 % of control, the T/C (dose: 200.0 mg/kg/injection, schedule: Q01DX009 (ip), vehicle: other) was 118 % of control and the T/C (dose: 400.0 mg/kg/injection, schedule: Q01DX009 (ip), vehicle: other) was 101 % of control.
In the case of `C/C(=N\O)c1ccccn1`, the T/C (dose: 25.0 mg/kg/injection, schedule: Q01DX009 (ip), vehicle: water) is reported as 100 % of control, the T/C (dose: 50.0 mg/kg/injection, schedule: Q01DX009 (ip), vehicle: water) is reported as 98 % of control and the T/C (dose: 100.0 mg/kg/injection, schedule: Q01DX009 (ip), vehicle: water) is reported as 98 % of control. The T/C (dose: 200.0 mg/kg/injection, schedule: Q01DX009 (ip), vehicle: water) was 100 % of control and the T/C (dose: 400.0 mg/kg/injection, schedule: Q01DX009 (ip), vehicle: water) was 106 % of control.
`O=C1SC/C(=N\N=C2/CSC(=O)N2Cc2ccccc2)N1Cc1ccccc1` was tested, and the T/C [13] was 87 % of control, the T/C [14] was 93 % of control and the T/C [15] was 88 % of control.
With `CCC(=O)C(C)C1(C(=O)OC)NC(=S)NC(=O)C1C#N` (stereo not drawn) the T/C (dose: 7.5 mg/kg/injection, schedule: Q01DX005 (ip), vehicle: saline with Tween-80) was 102 % of control, the T/C (dose: 15.0 mg/kg/injection, schedule: Q01DX005 (ip), vehicle: saline with Tween-80) was 99 % of control and the T/C (dose: 30.0 mg/kg/injection, schedule: Q01DX005 (ip), vehicle: saline with Tween-80) was 103 % of control.
In the case of `CSC(C(OC(C)=O)C(OC(C)=O)C(OC(C)=O)C(COC(C)=O)OC(C)=O)n1cnc2c(=S)nc[nH]c21` (stereo not drawn), the T/C [1] is reported as 101 % of control, the T/C [2] is reported as 92 % of control and the T/C [4] is reported as 89 % of control.
With `Cc1ccc(S(=O)(=O)Nc2ccc3nc(C)oc3c2)cc1` the T/C [12] was 100 % of control, the T/C (dose: 200.0 mg/kg/injection, schedule: Q01DX001 (ip), vehicle: saline with Tween-80) was 100 % of control and the T/C (dose: 400.0 mg/kg/injection, schedule: Q01DX001 (ip), vehicle: saline with Tween-80) was 100 % of control.
In the case of `Cc1ccccc1[B-]12OCC[N+]1(CNC(=O)c1ccccc1O)CCO2` (stereo not drawn), the T/C [13] is reported as 106 % of control, the T/C [14] is reported as 105 % of control and the T/C [15] is reported as 105 % of control.

From PubChem BioAssay AID330 (DTP/NCI, 2004)
